Where two headings read alike, the source gives them in different places.
Legend:
[1] = system: human panelists; assay: Human taste experiments: bitter thresholds and dose-response by sensory panel; assay type: in vivo; conditions: for Threshold Value Human: bitter threshold, triangle test, tap water; for EC50: bitterness intensity dose-response
Protocol: 15 experienced panelists in a sensory panel room at 22-25° C. determined bitter thresholds on three different sessions using a triangle test with tap water as solvent, according to methodology set out in J. Agric. Food Chem., 49, 231-238 (2001), or Mailgaard M et al, “Sensory Evaluation Techniques” (CRC Press LLC, New York 1999). For dose-response relations, bitter tastant concentration series were presented to 10 trained panelists in random order. The panelists ranked the samples in increasing order of intensity and, for each concentration, evaluated bitterness intensity on a scale from 0 to 5 (ref. 24). The dose-response curves of three different sessions were averaged. The intensity values between individuals and separate sessions differed by not more than 0.5 units.

[2] = target: T1, hTAS2R38 (Homo sapiens, UniProt P59533); assay: FLIPR assay, heterologous expression of hTAS2R38; assay type: cell-based
T1 construct: gene-specific primers that span the complete coding region ... contains the first 45 amino acids of the rat somatostatin type 3 receptor
T1 sequence (P59533 1-333 A49P/I296V): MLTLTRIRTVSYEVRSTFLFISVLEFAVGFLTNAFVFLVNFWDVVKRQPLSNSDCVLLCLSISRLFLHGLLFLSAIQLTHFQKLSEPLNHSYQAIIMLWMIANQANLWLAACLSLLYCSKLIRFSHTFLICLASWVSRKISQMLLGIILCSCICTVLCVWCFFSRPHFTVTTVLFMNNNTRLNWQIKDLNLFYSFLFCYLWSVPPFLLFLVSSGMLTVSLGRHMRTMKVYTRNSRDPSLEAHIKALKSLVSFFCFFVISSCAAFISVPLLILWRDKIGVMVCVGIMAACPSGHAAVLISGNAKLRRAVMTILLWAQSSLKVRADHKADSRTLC
Excerpt: These cells stably express a chimeric G protein constructed from human Gα16 and rat gustducin. Finally, we seeded the transfected cells at a density of 3×10^3 cells per well into 96-well black-wall, clear-bottom microtiter plates (Greiner).
Co-transfection of TAS2Rs with gustducin and phospholipase-Cβ2 into HEK-293 cells. Alternatively, we transfected simultaneously plasmid DNAs encoding one of the TAS2Rs, phospholipase-Cβ2 and α-gustducin into HEK-293 cells using the lipofectamine method. Additional cotransfection of G-protein β and γ-subunits may improve the bitter tastant-induced responses. Thereafter, the transfected cells were seeded at a density of 3×10^3 cells per well into 96-well black-wall, clear-bottom microtiter plates (Greiner).
Thereafter, cells were gently washed in HBS by an automated plate washer (Denley Cellwash, Labsystenms) and transferred to the FLIPR (Molecular Devices). The FLIPR integrates an argon laser excitation source, a 96-well pipettor, and a detection system utilizing a Charged Coupled Device imaging camera. […] Fluorescence data were collected 1 min before and 10 min after stimulation. Data were collected every 6 s before and every 1 s after agonist stimulation. 50 μl of 3× concentrated agonists were delivered within 2 by the integrated 96-well pipettor to the wells containing 100 μl HBS. Agonist responses were quantified using the amplitudes of the fluorescence peaks. We averaged the responses of five wells containing cells expressing the same receptor and that received the same stimulus. Calcium traces were determined in triplicate of mock-transfected cells stimulated with the same concentration of tastant.

[3] = target: T2, hTAS2R10 (Homo sapiens, UniProt Q9NYW0, T156M); assay: FLIPR assay, heterologous expression of hTAS2R10; assay type: cell-based
T2 construct: gene-specific primers that span the complete coding region of the individual hTAS2R genes; first 45 amino acids of rat somatostatin type 3 receptor (cell surface-targeting signal) (N); expressed in transfected cells; host or cells: HEK-293T-Gα16gustducin44 cells (alternatively HEK-293 co-transfected with phospholipase-Cβ2 and α-gustducin)
T2 sequence (Q9NYW0 1-307 T156M): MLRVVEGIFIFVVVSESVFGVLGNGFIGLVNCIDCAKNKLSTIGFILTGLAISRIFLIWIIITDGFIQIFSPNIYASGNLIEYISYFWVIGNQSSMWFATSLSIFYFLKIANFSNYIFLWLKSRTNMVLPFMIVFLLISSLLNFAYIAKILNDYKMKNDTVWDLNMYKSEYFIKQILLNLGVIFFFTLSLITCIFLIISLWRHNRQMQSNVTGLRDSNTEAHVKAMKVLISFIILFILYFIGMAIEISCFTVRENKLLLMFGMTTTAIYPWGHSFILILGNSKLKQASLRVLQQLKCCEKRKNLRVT
Excerpt: (§1) Transient transfection of TAS2Rs into HEK-293T-Gα16gustducin44 cells.

[4] = target: T3, hTAS2R16 (Homo sapiens, UniProt Q9NYV7, R222H); assay: FLIPR calcium assay, hTAS2R16-expressing HEK293/15 transfectants; assay type: cell-based
T3 construct: gene-specific primers that span the complete coding region of the individual hTAS2R genes; first 45 amino acids of rat somatostatin type 3 receptor (cell surface-targeting signal) (N); expressed in transfected cells; host or cells: HEK293/15 cells (HEK293 stably expressing Galpha15), transient transfection
T3 sequence (Q9NYV7 1-291 R222H): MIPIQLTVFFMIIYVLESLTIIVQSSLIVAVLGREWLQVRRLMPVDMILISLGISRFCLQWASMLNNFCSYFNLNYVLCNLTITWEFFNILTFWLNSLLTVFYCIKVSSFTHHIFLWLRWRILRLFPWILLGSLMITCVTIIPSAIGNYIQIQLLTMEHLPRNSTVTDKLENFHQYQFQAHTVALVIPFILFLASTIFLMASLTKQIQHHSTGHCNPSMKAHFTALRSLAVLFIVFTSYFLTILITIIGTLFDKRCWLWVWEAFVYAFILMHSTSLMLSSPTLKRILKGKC
Protocol: A fluorescence imaging plate reader (FLIPR, Molecular Devices) was used to functionally screen cell populations transiently transfected with expression vectors encoding the above-described 24 bitter receptors and to establish concentration-response curves for hTAS2R16 and hTASR10. […] For the FLIPR experiments the HEK293/15 cells were grown to 50% confluence. […] After 48 h the cells in each well were transfected using Lipofectamine 2000 and 24-30 h later were loaded with FIuo4AM (Molecular Probes). Thereafter they were stimulated with bitter compounds (SigmaAldrich, further purified by reversed-phase HPLC to >99% purity). Calcium signals were recorded simultaneously from each well at 1 Hz at 510 nm after excitation at 488 nm and the recordings were corrected for cell density. […] The calculations rest on at least four independent transfection experiments.
EC50 and threshold values obtained with hTAS2R16-expressing transfectants are shown in Table 1 below and the results are described in Example 4.

[5] = target: T3, hTAS2R16; assay: FLIPR assay, heterologous expression of hTAS2R16; assay type: cell-based
Excerpt: as §1

[6] = system: human panelists; assay: Human taste adaptation experiment; assay type: in vivo
Protocol: To investigate adaptation, the 8 panelists first maintained aqueous solutions (5 ml) of phenyl-β-D-glucopyranoside (8 mM), phenyl-alpha-D-glucopyranoside (180 mM), salicin (8 mM), or helicin (8 mM) for 15 s in their oral cavities and evaluated the bitter intensity as described above. After 30 min, they kept a denatonium benzoate solution (5 ml, 0.0003 mM) for 15 s in their mouth and evaluated its bitterness. The panelists spat off the denatonium benzoate solution, took up the phenyl-β-D-glucopyranoside or the phenyl-alpha-D-glucopyranoside solutions orally for 120 s or 180 s and judged their bitterness intensity after 15, 30, 60, 120 and 180s. Thereafter, the panelists spat off these solutions and then sequentially took up salicin, helicin (5 ml, 8 mM) and denatonium benzoate (5 ml, 0.0003 mM) and evaluated bitterness intensities of these solutions after 15 s. After an additional 30 min, the first experiment was repeated. The data of three different sessions for each panelist were averaged. Intensity values between individuals and separate sessions differed by not more than ±0.5 units.

Which “Threshold Value Human” value [1] does the source give for COC1OC(CO)C(O)C(O)C1O [Compound 7, methyl-beta-D-lucopyranoside] here?
Its value is 32 ± 11 mM.

With S=C1NCCN1 [2-Imidazolidinethione] as the compound, how does the “Approx. Threshold” value [2] read?
Its value is 10 µM.

What about the “receptor activation (in words)” value [2] of the same compound?
Its value is “activated”.

Which results are given for COc1cc2c(cc1OC)[C@@]13CCN4CC5=CCO[C@H]6CC(=O)N2[C@H]1[C@H]6[C@H]5C[C@H]43 [Brucine]?
EC50 [3]: 60 µM; Approx. Threshold ([3]; hTAS2R10): 0.01 mM; receptor activation (in words) ([3]; hTAS2R10): activated

Which results are given for NC(=S)Nc1ccccc1 [Phenylthiocarbamid]?
Approx. Threshold [2]: 0.3 µM; EC50 [2]: 2 µM; receptor activation (in words) [2]: activated

“N,N-dimethylthioformamide [N,N-Dimethyl- thioformamide]” was tested. Which “Approx. Threshold” value [2] did it give?
Its value is 10 µM.

And the “receptor activation (in words)” value [2]?
The value was “activated”.

What about the EC50 ([2]; read-out: EC50) of the same compound?
Its EC50 is 55 µM.

Which “Threshold Value Human” value [1] does the source give for OC[C@H]1O[C@@H](Oc2ccccc2)[C@H](O)[C@@H](O)[C@H]1O [Compound 10, phenyl-beta-D-galactopyranoside] here?
Its value is 40 ± 13 mM.

What about the EC50 [4] of the same compound?
The EC50 was over 100000 µM.

And the “Threshold Value FLIPR” value [4]?
The value was “n.r. (No response up to 100 mM)”.

O=[N+]([O-])c1ccc(O[C@@H]2O[C@H](CO)[C@@H](O)[C@H](O)[C@@H]2O)cc1 [4-Nitrophenyl-β-D-Mannoside] was tested. Which Threshold ([5]; hTAS2R16) did it give?
The Threshold was 1 − 3 mM.

With CN(C)C(=S)N(C)C [Tetramethylthiourea] as the compound, how does the “Approx. Threshold” value [2] read?
Its value is 10 to 30 µM.

What about the “receptor activation (in words)” value [2] of the same compound?
The value was “activated”.

What about the EC50 ([2]; read-out: EC50) of the same compound?
The EC50 was 100 µM.

O=[N+]([O-])c1ccc(S[C@@H]2O[C@H](CO)[C@@H](O)[C@H](O)[C@H]2O)cc1 [4-Nitrophenyl-β-D-Thioglucoside] was tested. Which Threshold ([5]; hTAS2R16) did it give?
Its Threshold is 1 − 5 mM.

With CC(=O)NC(N)=S [Acetylthiourea] as the compound, how does the “Approx. Threshold” value [2] read?
The value was 2 µM.

What about the “receptor activation (in words)” value [2] of the same compound?
Its value is “activated”.

What about the EC50 ([2]; read-out: EC50) of the same compound?
Its EC50 is 15 µM.

With N#CC(O[C@@H]1O[C@H](CO[C@@H]2O[C@H](CO)[C@@H](O)[C@H](O)[C@H]2O)[C@@H](O)[C@H](O)[C@H]1O)c1ccccc1 (stereo partly drawn) [Compound 8, amygdalin] as the compound, how does the EC50 [5] read?
Its EC50 is 20000 ± 3400 µM.

What about the EC50 [4] of the same compound?
The EC50 was 20000 µM.

N-Methylthiourea was tested. Which “Approx. Threshold” value [2] did it give?
The value was 100 µM.

What about the “receptor activation (in words)” value [2] of the same compound?
The value was “activated”.

And the EC50 ([2]; read-out: EC50)?
The EC50 was 600 to 800 µM.

How did the EC50 ([1]; Homo sapiens) turn out when OC[C@H]1O[C@@H](Oc2ccc3ccccc3c2)[C@H](O)[C@@H](O)[C@@H]1O [Compound 6, naphthyl-beta-D-pyranoside] was run?
Its EC50 is 1400 µM.

And the “Threshold Value Human” value [1]?
Its value is 0.2 ± 0.1 mM.

What about the EC50 ([5]; hTAS2R16, read-out: EC50) of the same compound?
Its EC50 is 1000 ± 100 µM.

And the EC50 [4]?
The EC50 was 1000 µM.

For CC(=S)Nc1ccccc1 [Thioacetanilide], which “Approx. Threshold” value [2] is on record?
Its value is 3 µM.

What about the “receptor activation (in words)” value [2] of the same compound?
The value was “activated”.

What about the EC50 ([2]; read-out: EC50) of the same compound?
Its EC50 is 18 µM.

How did the “Approx. Threshold” value [2] turn out when O=c1cc[nH]c(=S)[nH]1 [Compound 2-Thiouracil, 2-Thiouracil] was run?
Its value is 300 µM.

And the “receptor activation (in words)” value [2]?
Its value is “activated”.

And the EC50 ([2]; read-out: EC50)?
The EC50 was about 2000 µM.

Which results are given for Thioacetamide?
Approx. Threshold [2]: 100 µM; receptor activation (in words) [2]: activated

Which “Approx. Threshold” value [2] does the source give for Cc1cc(=O)[nH]c(=S)[nH]1 [4(6)-Methyl-2-thiouracil] here?
The value was 20 µM.

And the “receptor activation (in words)” value [2]?
The value was “activated”.

What about the EC50 ([2]; read-out: EC50) of the same compound?
Its EC50 is 180 µM.

Which reacts at [2] does the source give for O=c1cc(O)[nH]c(=S)[nH]1 [2-Thiobarbituric acid] here?
Its reacts at is “reacts at 10 mM”.

And the “receptor activation (in words)” value [2]?
The value was “activated”.

With O=c1ccc2cc(O[C@@H]3O[C@H](CO)[C@@H](O)[C@H](O)[C@H]3O)c(O)cc2o1 [Compound 9, esculin] as the compound, how does the “Threshold Value Human” value [1] read?
The value was 4 ± 1 mM.

What about the Threshold ([5]; hTAS2R16) of the same compound?
Its Threshold is 4 ± 2 mM.

And the “Threshold Value FLIPR” value [4]?
The value was 4 ± 2 mM.

Which EC50 ([1]; Homo sapiens) does the source give for OCC1OC(Oc2ccccc2)C(O)C(O)C1O [Compound 11, phenyl-alpha-D-glucopyranoside] here?
The EC50 was 50000 µM.

What about the “Threshold Value Human” value [1] of the same compound?
The value was 9 ± 3 mM.

What about the EC50 [4] of the same compound?
Its EC50 is over 100000 µM.

What about the “Threshold Value FLIPR” value [4] of the same compound?
Its value is “n.r. (No response up to 100 mM)”.

What about the “own bitterness during prolonged stimulation (adaptation)” value ([6]; 120 s or 180 s in the mouth) of the same compound?
The value was “desensitized strongly”.

What about the “cross-adaptation with all tested beta-D-glucopyranosides” value ([6]; in vivo) of the same compound?
The value was “failed to cross-adapt”.

Which results are given for OC[C@H]1O[C@@H](Oc2ccc(O)cc2)[C@H](O)[C@@H](O)[C@@H]1O [Compound 4, arbutin]?
Threshold Value Human [1]: 0.9 ± 0.3 mM; EC50 [1]: 5400 µM; Threshold ([5]; hTAS2R16): 0.5 ± 0.2 mM; EC50 ([5]; hTAS2R16, read-out: EC50): 5800 ± 900 µM; EC50 [4]: 5800 µM; Threshold Value FLIPR [4]: 0.5 ± 0.2 mM

How did the Threshold ([5]; hTAS2R16) turn out when O=[N+]([O-])c1ccc(O[C@@H]2O[C@H](CO)[C@@H](O)[C@H](O)[C@H]2O)cc1 [4-Nitrophenyl-β-D-Glucoside] was run?
Its Threshold is 1 − 3 mM.

With CCNC(N)=S [N-Ethylthiourea] as the compound, how does the “Approx. Threshold” value [2] read?
The value was 30 µM.

What about the “receptor activation (in words)” value [2] of the same compound?
Its value is “activated”.

What about the EC50 ([2]; read-out: EC50) of the same compound?
Its EC50 is 260 µM.

How did the Threshold ([5]; hTAS2R16) turn out when O=[N+]([O-])c1ccccc1O[C@@H]1O[C@H](CO)[C@@H](O)[C@H](O)[C@H]1O [Compound 5, 2-nitro-phenyl-beta-D-glucopyranoside] was run?
The Threshold was 0.3 − 1 mM.

And the “Threshold Value FLIPR” value [4]?
The value was 1.5 ± 0.5 mM.

— patent US7955808B2, “Bitter taste receptors” (Deutsches Institut für Ernährungsorschung, Stiftung des …, priority 2002, dated 2011)
